The assay has as its system CD2F1 mice, L1210 leukemia ip, survival T/C. The assay can be described thus: NCI In Vivo Anticancer Drug Screen. Data for tumor model L1210 Leukemia (intraperitoneal) in CD2F1 (CDF1) mice. The note with it: higher = longer survival. The procedure, abridged: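 Activity against a transplanted murine tumor was judged by comparing the compound group with a vehicle group. The outcome in the treated animals was divided by that in the controls.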

Setting [1] is: endpoint: mean survival time, dose: 100.0 mg/kg/injection, schedule: Q04DX003 (ip), vehicle: saline with Tween-80.
Where [2] appears, read: endpoint: mean survival time, dose: 200.0 mg/kg/injection, schedule: Q04DX003 (ip), vehicle: saline with Tween-80.
The mark [3] stands for this setting: endpoint: mean survival time, dose: 400.0 mg/kg/injection, schedule: Q04DX003 (ip), vehicle: saline with Tween-80.
Setting [4] is: endpoint: mean survival time, dose: 100.0 mg/kg/injection, schedule: Q01DX001 (ip), vehicle: saline with Tween-80.
Where [5] appears, read: endpoint: mean survival time, dose: 200.0 mg/kg/injection, schedule: Q01DX001 (ip), vehicle: saline with Tween-80.
Setting [6] is: endpoint: mean survival time, dose: 400.0 mg/kg/injection, schedule: Q01DX001 (ip), vehicle: saline with Tween-80.
Setting [7] is: endpoint: mean survival time, dose: 100.0 mg/kg/injection, schedule: Q01DX009 (ip), vehicle: saline with Tween-80.
Where [8] appears, read: endpoint: mean survival time, dose: 200.0 mg/kg/injection, schedule: Q01DX009 (ip), vehicle: saline with Tween-80.
[9] abbreviates: endpoint: mean survival time, dose: 100.0 mg/kg/injection, schedule: Q04DX003 (ip), vehicle: saline.
Setting [10] is: endpoint: mean survival time, dose: 200.0 mg/kg/injection, schedule: Q04DX003 (ip), vehicle: saline.
Where [11] appears, read: endpoint: mean survival time, dose: 400.0 mg/kg/injection, schedule: Q04DX003 (ip), vehicle: saline.
Where [12] appears, read: endpoint: mean survival time, dose: 100.0 mg/kg/injection, schedule: Q04DX002 (ip), vehicle: saline with Tween-80.
Setting [13] is: endpoint: mean survival time, dose: 200.0 mg/kg/injection, schedule: Q04DX002 (ip), vehicle: saline with Tween-80.

25 molecules from PubChem BioAssay AID256 (DTP/NCI, 2004) can be followed below.

Values joined by “and” are separate entries in the source; they are usually repeats but may differ in a detail not shown here. Identical values can stand only once. Toxic doses and inconclusive results are not listed.

Turning to `ClCc1c2c(cc3c1CCCC3)CCCC2`, the T/C was 105 % of control under setting [1] and 93 % of control under setting [2].

Turning to `OC1CCCC2CCCCC12` (stereo unspecified), the T/C is, setting by setting: under setting [1], 100 % of control; under setting [2], 109 % of control; under setting [3], 94 % of control.

Regarding `CCN(CC)c1nc2c(c(=O)n(C)c(=O)n2C)n1CCCNCC(O)c1ccc(O)c(O)c1` (stereo unspecified), the T/C (endpoint: mean survival time, dose: 12.5 mg/kg/injection, schedule: Q01DX005 (ip), vehicle: distilled water + Tween-80) was 96 % of control; the T/C (endpoint: mean survival time, dose: 25.0 mg/kg/injection, schedule: Q01DX005 (ip), vehicle: distilled water + Tween-80) is 103 % of control; the T/C (endpoint: mean survival time, dose: 50.0 mg/kg/injection, schedule: Q01DX005 (ip), vehicle: distilled water + Tween-80) is 97 % of control; the T/C (endpoint: mean survival time, dose: 100.0 mg/kg/injection, schedule: Q01DX005 (ip), vehicle: distilled water + Tween-80) is 105 % of control; the T/C (endpoint: mean survival time, dose: 200.0 mg/kg/injection, schedule: Q01DX005 (ip), vehicle: distilled water + Tween-80) was 100 % of control.

As for `C=C/C(C)=N/Nc1ccc([N+](=O)[O-])cc1[N+](=O)[O-]`, the T/C was 94 % of control under setting [1], 95 % of control under setting [2] and 95 % of control under setting [3].

Take `CC(C)(C)N1CC1CNC(=O)C(=O)NCC1CN1C(C)(C)C` (stereo unspecified): the T/C was 100 % of control and 102 % of control (endpoint: mean survival time, dose: 0.78 mg/kg/injection, schedule: Q01DX009 (ip), vehicle: saline with Tween-80); 103 % of control and 105 % of control (endpoint: mean survival time, dose: 1.56 mg/kg/injection, schedule: Q01DX009 (ip), vehicle: saline with Tween-80); 114 % of control and 108 % of control (endpoint: mean survival time, dose: 3.12 mg/kg/injection, schedule: Q01DX009 (ip), vehicle: saline with Tween-80); 171 % of control and 201 % of control (endpoint: mean survival time, dose: 12.5 mg/kg/injection, schedule: Q01DX009 (ip), vehicle: saline with Tween-80); 150 % of control (endpoint: mean survival time, dose: 12.5 mg/kg/injection, schedule: Q01DX009 (oral), vehicle: saline with Tween-80); 117 % of control (endpoint: median survival time, dose: 3.13 mg/kg/injection, schedule: Q01DX009 (ip), vehicle: saline with Tween-80). Further, the T/C (endpoint: median survival time, dose: 6.25 mg/kg/injection, schedule: Q01DX009 (ip), vehicle: saline with Tween-80) was 158 % of control and 171 % of control; the T/C (endpoint: median survival time, dose: 12.5 mg/kg/injection, schedule: Q01DX009 (ip), vehicle: saline with Tween-80) was 273 % of control and 275 % of control; the T/C (endpoint: median survival time, dose: 25.0 mg/kg/injection, schedule: Q01DX009 (ip), vehicle: saline with Tween-80) is 117 % of control and 98 % of control.

For the molecule `CNCC(O)c1ccc(O)c(O)c1.[Pt].c1ccc([PH+](c2ccccc2)c2ccccc2)cc1.c1ccc([PH+](c2ccccc2)c2ccccc2)cc1`, the T/C by setting is: (endpoint: median survival time, dose: 10.0 mg/kg/injection, schedule: Q04DX003 (ip), vehicle: saline with Tween-80) 94 % of control; (endpoint: median survival time, dose: 20.0 mg/kg/injection, schedule: Q04DX003 (ip), vehicle: saline with Tween-80) 108 % of control; (endpoint: median survival time, dose: 40.0 mg/kg/injection, schedule: Q04DX003 (ip), vehicle: saline with Tween-80) 109 % of control; (endpoint: median survival time, dose: 50.0 mg/kg/injection, schedule: Q04DX003 (ip), vehicle: saline with Tween-80) 102 % of control; (endpoint: median survival time, dose: 80.0 mg/kg/injection, schedule: Q04DX003 (ip), vehicle: saline with Tween-80) 105 % of control; (endpoint: median survival time, dose: 100.0 mg/kg/injection, schedule: Q04DX003 (ip), vehicle: saline with Tween-80) 101 % of control.

As to `CC1(C)OCC(C(O)C(O)C(O)CO)O1` (stereo unspecified), the T/C is 102 % of control (endpoint: mean survival time, dose: 50.0 mg/kg/injection, schedule: Q01DX009 (ip), vehicle: saline); 98 % of control (endpoint: mean survival time, dose: 100.0 mg/kg/injection, schedule: Q01DX009 (ip), vehicle: saline); 102 % of control (endpoint: mean survival time, dose: 200.0 mg/kg/injection, schedule: Q01DX009 (ip), vehicle: saline).

On to `Cc1c(N=Nc2cc[n+]([O-])cc2)ccc(N(C)C)c1C`, for which the T/C by setting is: under setting [1], 102 % of control; under setting [2], 97 % of control.

`CSC(=NC#N)N(C)C`: the T/C is, setting by setting: (endpoint: mean survival time, dose: 25.0 mg/kg/injection, schedule: Q04DX003 (ip), vehicle: saline sonified) 105 % of control; (endpoint: mean survival time, dose: 50.0 mg/kg/injection, schedule: Q04DX003 (ip), vehicle: saline sonified) 95 % of control; under setting [4], 114 % of control.

`O=C1NC(=O)C2(CCN(Cc3ccccc3)CC2)N1`: the T/C was 104 % of control under setting [4], 101 % of control under setting [5] and 101 % of control under setting [6].

With `CC(C)(C(O)c1ccccc1)[N+](=O)[O-]` (stereo unspecified), the T/C runs as follows: under setting [4], 105 % of control; under setting [7], 102 % of control; under setting [5], 102 % of control; under setting [8], 95 % of control; under setting [6], 98 % of control; (endpoint: mean survival time, dose: 400.0 mg/kg/injection, schedule: Q01DX009 (ip), vehicle: saline with Tween-80) 96 % of control.

With `OC(CN=C/C=C/c1ccccc1)c1ccccc1` (stereo unspecified), the T/C under setting [1] was 95 % of control, the T/C under setting [2] was 89 % of control and the T/C under setting [3] was 92 % of control.

As for `CC1(O)CC2CCC1C2` (stereo unspecified), the T/C by setting is: under setting [9], 95 % of control; under setting [10], 90 % of control; under setting [11], 87 % of control.

As to `C[n+]1c(O)c(C(=O)CCl)n2cc([N+](=O)[O-])ccc21`, the T/C runs as follows: (endpoint: mean survival time, dose: 12.5 mg/kg/injection, schedule: Q01DX009 (ip), vehicle: acetone) 95 % of control; (endpoint: mean survival time, dose: 25.0 mg/kg/injection, schedule: Q01DX009 (ip), vehicle: acetone) 101 % of control; (endpoint: mean survival time, dose: 50.0 mg/kg/injection, schedule: Q01DX009 (ip), vehicle: acetone) 90 % of control.

Take `O=C(O)/C=C/C(=O)Nc1ccc(I)cc1`: the T/C runs as follows: under setting [7], 95 % of control; under setting [1], 104 % of control; under setting [8], 111 % of control; under setting [2], 98 % of control; under setting [3], 97 % of control.

Turning to `O=C1C(Sc2ccc3ccccc3c2)=C(Sc2ccc3ccccc3c2)C(=O)c2ccccc21`, the T/C is, setting by setting: (endpoint: mean survival time, dose: 25.0 mg/kg/injection, schedule: Q04DX003 (ip), vehicle: saline with Tween-80) 94 % of control; (endpoint: mean survival time, dose: 50.0 mg/kg/injection, schedule: Q04DX003 (ip), vehicle: saline with Tween-80) 94 % of control.

For the molecule `c1ccc2c(c1)Cc1cc3ccccc3nc1-2`, the T/C (endpoint: mean survival time, dose: 75.0 mg/kg/injection, schedule: Q01DX001 (ip), vehicle: saline) is 102 % of control; the T/C (endpoint: mean survival time, dose: 150.0 mg/kg/injection, schedule: Q01DX001 (ip), vehicle: saline) is 97 % of control; the T/C (endpoint: mean survival time, dose: 300.0 mg/kg/injection, schedule: Q01DX001 (ip), vehicle: saline) was 101 % of control.

On to `CCN(CC)Cc1cc(O)ccc1NCCCNc1ccnc2cc(Cl)ccc12`, for which the T/C under setting [1] was 96 % of control.

As for `CCOc1c(NCCO)c2cc(Cl)ccc2oc1=O`, the T/C reads like this: under setting [4], 95 % of control; under setting [5], 87 % of control; under setting [6], 97 % of control.

`Cc1cc(C(=O)O)c(CC(=O)O)o1`: the T/C reads like this: under setting [12], 104 % of control; under setting [13], 104 % of control; (endpoint: mean survival time, dose: 400.0 mg/kg/injection, schedule: Q04DX002 (ip), vehicle: saline with Tween-80) 86 % of control.

For the molecule `COC(=O)C(C(N)=O)C(=O)C1C(=O)N(c2ccccc2)N=C1C` (stereo unspecified), the T/C was 97 % of control (endpoint: mean survival time, dose: 50.0 mg/kg/injection, schedule: Q04DX002 (ip), vehicle: saline with Tween-80); 93 % of control under setting [12]; 93 % of control under setting [13].

For the molecule `O=C(O/N=C(/CN1CCOCC1)c1ccc(Cl)cc1)c1ccccc1`, the T/C is 97 % of control under setting [1], 94 % of control under setting [2] and 90 % of control under setting [3].

For `CC(=O)CC(C)=O`, the T/C under setting [9] is 103 % of control, the T/C under setting [10] is 94 % of control and the T/C under setting [11] is 100 % of control.

As to `CC(C(=O)c1ccccc1)N(C)Cc1ccccc1` (stereo unspecified), the T/C is 98 % of control (endpoint: mean survival time, dose: 50.0 mg/kg/injection, schedule: Q04DX003 (ip), vehicle: saline); 96 % of control under setting [9]; 93 % of control under setting [10].

Turning to `CCCCCCCCC1SC1CCCCCCCCOC(=O)CCCCCCCC1SC1CCCCCCCC` (stereo unspecified), the T/C is, setting by setting: (endpoint: mean survival time, dose: 100.0 mg/kg/injection, schedule: Q04DX003 (ip), vehicle: Klucel (hydroxypropylcellulose) (HPC)) 95 % of control; (endpoint: mean survival time, dose: 200.0 mg/kg/injection, schedule: Q04DX003 (ip), vehicle: Klucel (hydroxypropylcellulose) (HPC)) 93 % of control; (endpoint: mean survival time, dose: 400.0 mg/kg/injection, schedule: Q04DX003 (ip), vehicle: Klucel (hydroxypropylcellulose) (HPC)) 102 % of control.
